In brackets after ≈: the same amount, converted by molar mass. Several values for one entry are separate records, joined by “and”; a condition that tells them apart may be missing. Equal values may be shown once. Where a name gives a salt, the structure may show the parent alone. Read-outs that look alike come from different tables or passages of the source.
Key:
[1] = test system: methicillin-resistant Staphylococcus aureus ATCC 43300; test: Antibacterial microdilution broth method (EUCAST); format: cell-based; conditions: ATCC 43300 / MRSA
Candida krusei ATCC 6258 = test: microbe, parasite or virus in culture; format: cell-based; conditions: Pichia kudriavzevii
[2] = test system: Klebsiella pneumoniae ATCC 10031; conditions: for MIC KP 24 h: 24 h incubation; for MIC KP 48 h: 48 h incubation
[3] = biological target: AChE from electric eel (EeAChE) (Electrophorus electricus, UniProt O42275); test: biochemical; format: biochemical
[4] = biological target: BuChE from equine serum (EqBuChE) (Equus caballus, UniProt P81908); test: biochemical
[5] = test system: Candida albicans ATCC 24443; test: microbe, parasite or virus in culture; format: cell-based
[6] = test system: Pseudomonas aeruginosa ATCC 27853; test: Antibacterial microdilution broth method (EUCAST); format: cell-based
[7] = test system: Acinetobacter baumannii ATCC 19606; test: Antibacterial microdilution broth method (EUCAST); format: cell-based
[8] = test system: Trichophyton interdigitale ATCC 9533; test: microbe, parasite or virus in culture; format: cell-based
[9] = test system: Staphylococcus epidermidis ATCC 12228; test: Antibacterial microdilution broth method (EUCAST); format: cell-based
[10] = test system: Candida parapsilosis ATCC 22019; test: microbe, parasite or virus in culture; format: cell-based; conditions: Lodderomyces parapsilosis
[11] = test system: Staphylococcus aureus ATCC 29213; test: Antibacterial microdilution broth method (EUCAST); format: cell-based
[12] = test system: Escherichia coli ATCC 25922; test: Antibacterial microdilution broth method (EUCAST); format: cell-based
[13] = test system: Enterococcus faecalis ATCC 29212; test: Antibacterial microdilution broth method (EUCAST); format: cell-based
[14] = test system: Candida tropicalis ATCC 750; test: microbe, parasite or virus in culture; format: cell-based
[15] = mean ± SD, n = three independent experiments, ATCh 40 µM, read-out: IC50 AChE
[16] = mean ± SD, n = three independent experiments, BTCh 40 µM, read-out: IC50 BuChE
[17] = ATCC27853, 24 h, read-out: MIC PA 24 h
[18] = ATCC27853, 48 h, read-out: MIC PA 48 h
[19] = ATCC19606, 24 h, read-out: MIC ACI 24 h
[20] = ATCC19606, 48 h, read-out: MIC ACI 48 h
[21] = ATCC12228, 24 h, read-out: MIC SE 24 h
[22] = ATCC12228, 48 h, read-out: MIC SE 48 h
[23] = ATCC29213, 24 h, read-out: MIC SA 24 h
[24] = ATCC29213, 48 h, read-out: MIC SA 48 h
[25] = ATCC25922, 24 h, read-out: MIC EC 24 h
[26] = ATCC25922, 48 h, read-out: MIC EC 48 h
[27] = ATCC29212, 24 h, read-out: MIC EF 24 h
[28] = ATCC29212, 48 h, read-out: MIC EF 48 h

Sequence of BuChE from equine serum (EqBuChE) (P81908 whole entry): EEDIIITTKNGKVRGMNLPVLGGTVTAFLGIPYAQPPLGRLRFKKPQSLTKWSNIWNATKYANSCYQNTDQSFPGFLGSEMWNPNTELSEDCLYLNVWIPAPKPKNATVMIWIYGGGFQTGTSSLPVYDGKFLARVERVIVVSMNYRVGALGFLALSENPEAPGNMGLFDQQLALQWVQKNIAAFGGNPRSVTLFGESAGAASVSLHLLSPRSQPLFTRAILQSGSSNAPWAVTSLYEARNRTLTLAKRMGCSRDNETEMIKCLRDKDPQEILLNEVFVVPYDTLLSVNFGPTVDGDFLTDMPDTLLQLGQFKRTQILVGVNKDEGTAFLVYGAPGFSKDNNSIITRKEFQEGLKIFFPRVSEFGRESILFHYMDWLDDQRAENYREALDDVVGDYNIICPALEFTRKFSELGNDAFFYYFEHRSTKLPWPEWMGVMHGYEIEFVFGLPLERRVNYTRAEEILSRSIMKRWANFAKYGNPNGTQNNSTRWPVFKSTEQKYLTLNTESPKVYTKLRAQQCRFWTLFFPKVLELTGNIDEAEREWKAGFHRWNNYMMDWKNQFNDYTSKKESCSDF
Sequence of AChE from electric eel (EeAChE) (O42275 24-633): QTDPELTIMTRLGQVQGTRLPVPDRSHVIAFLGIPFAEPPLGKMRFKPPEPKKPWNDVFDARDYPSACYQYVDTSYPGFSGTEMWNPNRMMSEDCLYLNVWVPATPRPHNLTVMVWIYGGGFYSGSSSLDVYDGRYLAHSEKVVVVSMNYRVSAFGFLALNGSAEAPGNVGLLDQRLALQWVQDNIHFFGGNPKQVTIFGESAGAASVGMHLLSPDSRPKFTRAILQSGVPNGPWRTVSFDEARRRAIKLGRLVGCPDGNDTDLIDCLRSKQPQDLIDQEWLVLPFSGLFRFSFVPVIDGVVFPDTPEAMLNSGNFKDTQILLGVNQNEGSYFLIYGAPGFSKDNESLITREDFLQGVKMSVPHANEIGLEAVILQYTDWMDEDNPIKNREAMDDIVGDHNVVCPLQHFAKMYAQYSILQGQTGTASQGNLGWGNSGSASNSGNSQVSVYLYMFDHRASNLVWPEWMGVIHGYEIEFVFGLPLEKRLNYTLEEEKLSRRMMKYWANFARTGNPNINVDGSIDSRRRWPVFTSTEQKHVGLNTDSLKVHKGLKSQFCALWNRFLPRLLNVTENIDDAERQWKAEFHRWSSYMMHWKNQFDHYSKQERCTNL

SMILES	MIC ([1]; 24 h, read-out: MIC MRSA 24 h) [µM]	MIC ([1]; 48 h, read-out: MIC MRSA 48 h) [µM]	MIC KP 24 h [2] [µM]	MIC KP 48 h [2] [µM]	Selectivity AChE/BuChE [3]	IC50 [3, 15] [µM]	IC50 [4, 16]	MIC [6, 17] [µM]	MIC [6, 18] [µM]	MIC [7, 19] [µM]	MIC [7, 20] [µM]	MIC [9, 21] [µM]	MIC [9, 22] [µM]	MIC [11, 23] [µM]	MIC [11, 24] [µM]	MIC [12, 25] [µM]	MIC [12, 26] [µM]	MIC [13, 27] [µM]	MIC [13, 28] [µM]	other results
[H]/N=C(\N)NN=Cc1cc(Cl)cc(I)c1O [Compound 1l, (E)-2-(5-Chloro-2-hydroxy-3-iodobenzylidene)hydrazine-1-carboximidamide]	250 (≈ 84.6 µg/mL)	250 (≈ 84.6 µg/mL)	250 (≈ 84.6 µg/mL)	250 (≈ 84.6 µg/mL)	4.08	22.1 ± 0.55	< 20 µM and 5.42 µM	> 500	> 500	500 (≈ 169 µg/mL)	500 (≈ 169 µg/mL)	250 (≈ 84.6 µg/mL)	250 (≈ 84.6 µg/mL)	500 (≈ 169 µg/mL)	500 (≈ 169 µg/mL)	250 (≈ 84.6 µg/mL)	250 (≈ 84.6 µg/mL)	250 (≈ 84.6 µg/mL)	250 (≈ 84.6 µg/mL)	MIC (Candida krusei ATCC 6258; ATCC6258, 24 h, read-out: MIC CK 24 h): 500 µM (≈ 169 µg/mL); MIC (Candida krusei ATCC 6258; ATCC6258, 48 h, read-out: MIC CK 48 h): 500 µM (≈ 169 µg/mL); MIC ([5]; ATCC24443, 24 h, read-out: MIC CA 24 h): > 500 µM; MIC ([5]; ATCC24443, 48 h, read-out: MIC CA 48 h): > 500 µM; MIC ([8]; ATCC9533, 72 h, read-out: MIC TI 72 h): 125 µM (≈ 42.3 µg/mL); MIC ([8]; ATCC9533, 120 h, read-out: MIC TI 120 h): 125 µM (≈ 42.3 µg/mL); MIC ([10]; ATCC22019, 24 h, read-out: MIC CP 24 h): 500 µM (≈ 169 µg/mL); MIC ([10]; ATCC22019, 48 h, read-out: MIC CP 48 h): 500 µM (≈ 169 µg/mL); MIC ([14]; ATCC750, 24 h, read-out: MIC CT 24 h): 500 µM (≈ 169 µg/mL); MIC ([14]; ATCC750, 48 h, read-out: MIC CT 48 h): 500 µM (≈ 169 µg/mL)
[H]/N=C(\N)NN=Cc1ccco1 [Compound 3a, (E)-2-(Furan-2-ylmethylene)hydrazine-1-carboximidamide]	–	–	–	–	0.50	41.1 ± 0.54	82.3 ± 3.02 µM	–	–	–	–	–	–	–	–	–	–	–	–	–
N=C(N/N=C/c1ccc([N+](=O)[O-])o1)N/N=C/c1ccc([N+](=O)[O-])o1 [Compound 3c, (E)-2-[(5-Nitrofuran-2-yl)methylene]-N’-[(E)-(5-nitrofuran-2-yl)methylene]hydrazine-1-carboximidamide hydrochloride]	–	–	–	–	<0.08	–	–	–	–	–	–	–	–	–	–	–	–	–	–	IC50 [3]: 40 ± 2.56 µM; IC50 ([4]; IC50 BuChE): > 500 µM
NC(=O)N/N=C/c1ccc([N+](=O)[O-])o1 [Compound 3d, (E)-2-[(5-Nitrofuran-2-yl)methylene]hydrazine-1-carboxamide]	62.5 (≈ 12.4 µg/mL)	125 (≈ 24.8 µg/mL)	62.5 (≈ 12.4 µg/mL)	125 (≈ 24.8 µg/mL)	<0.07	36.6 ± 0.69	> 500 µM	> 500	> 500	> 500	> 500	31.2 (≈ 6.19 µg/mL)	62.5 (≈ 12.4 µg/mL)	62.5 (≈ 12.4 µg/mL)	125 (≈ 24.8 µg/mL)	125 (≈ 24.8 µg/mL)	250 (≈ 49.5 µg/mL)	500 (≈ 99.1 µg/mL)	500 (≈ 99.1 µg/mL)	–
OC(Cn1cncn1)(Cn1cncn1)c1ccc(F)cc1F [FLU, fluconazole, reference compound]	–	–	–	–	–	–	–	–	–	–	–	–	–	–	–	–	–	–	–	IC50 (Candida krusei ATCC 6258; ATCC6258, 24 h, read-out: IC50 (50% growth inhibition) CK 24 h): > 104 µM; IC50 (Candida krusei ATCC 6258; ATCC6258, 48 h, read-out: IC50 (50% growth inhibition) CK 48 h): > 104 µM; IC50 ([5]; ATCC24443, 24 h, read-out: IC50 (50% growth inhibition) CA 24 h): 6.5 µM; IC50 ([5]; ATCC24443, 48 h, read-out: IC50 (50% growth inhibition) CA 48 h): 6.5 µM; IC50 ([8]; ATCC9533, 72 h, read-out: IC50 (50% growth inhibition) TI 72 h): 52.2 µM; IC50 ([8]; ATCC9533, 120 h, read-out: IC50 (50% growth inhibition) TI 120 h): 52.2 µM; IC50 ([10]; ATCC22019, 24 h, read-out: IC50 (50% growth inhibition) CP 24 h): 3.3 µM; IC50 ([10]; ATCC22019, 48 h, read-out: IC50 (50% growth inhibition) CP 48 h): 3.3 µM; IC50 ([14]; ATCC750, 24 h, read-out: IC50 (50% growth inhibition) CT 24 h): 6.5 µM; IC50 ([14]; ATCC750, 48 h, read-out: IC50 (50% growth inhibition) CT 48 h): 6.5 µM
CCN1CCN(C(=O)N[C@@H](C(=O)N[C@@H]2C(=O)N3[C@@H]2SC(C)(C)[C@@H]3C(=O)O)c2ccccc2)C(=O)C1=O [PIP, piperacillin sodium salt, reference compound]	14.8	14.8	>59.31	>59.31	–	–	–	14.8	14.8	> 59.3	> 59.3	> 59.3	> 59.3	1.85	1.85	7.41	7.41	1.85	1.85	–

Source: paper PMC8704707 (Pharmaceuticals, 2021)
